Laboratory results reported in US20240150423A1, “GLP-1 ANALOGUE-MODIFIED DIMERS WITH DIFFERENT CONFIGURATIONS, PREPARATION METHOD THEREOF, AND APPLICATION THEREOF IN TREATMENT OF TYPE II DIABETES” (Nanjing Finepeptide Biopharmaceutical Co.,Ltd, priority 2019, published 2024).
Non-standard residues stand in square brackets, D forms with d. No end group written: not given here. Aib = CC(C)(N)C(=O)O

Tested on: Normal Kunming (KM) mice
Assay: multiple OGTT (mOGTT): hypoglycemic duration after a single administration
Format: in vivo
Details: monomeric peptides, single injection at the same dose (1.126 nmol), subcutaneous
How it was run: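 Tail blood glucose was followed by meter in normal KM mice after one dosing and glucose gavage, at 0, 10, 20, 40, 60 and 120 min. Measurement stopped when the treated mean rose above the NaCl group twice; the period before that is the effective duration.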

For “His-Ala-Glu-Gly-Thr-Phe-Thr-Ser-Asp-Val-Ser-Ser-Tyr-Leu-Glu-Gly-Gln-Ala-Ala-Lys[N-ϵ-(N-α-Palmitoyl-γ-glutamyl)]-Glu-Phe-Ile-Ala-Trp-Leu-Val-Arg-Gly-Arg-Gly-Cys-OH (HAEGTFTSDVSSYLEGQAAXEFIAWLVRGRGC; palmitoyl-γ-glutamyl on Lys; C-terminal acid; Sequence is synthesized; (20)..(20) Xaa is 26Lys[N-e-(N-a-Palmitoyl-g-glutamyl)]; (32)..(32) C-terminal) [G1]”, the “Hypoglycemic (day)” value was “No hypoglycemic”.

Compared with “His-Ala-Glu-Gly-Thr-Phe-ThrCys-Asp-Val-Ser-Ser-Tyr-Leu-Glu-Gly-Gln-Ala-Ala-Lys[N-ϵ-(N-α-oleoyl-L-γ-glutamyl)]-Glu-Phe-Ile-Ala-Trp-Leu-Val-Arg-Gly-Arg-Gly-OH (HAEGTFTCDVSSYLEGQAAXEFIAWLVRGRG; oleoyl-gamma-Glu on Lys; C-terminal acid; Sequence is synthesized; (20)..(20) Xaa is 26Lys[N-e-(N-a-oleoyl-L-g-glutamyl)]; (31)..(31) C-terminal) [G8 series 58]”, “His-aAib-Glu-Gly-Thr-Phe-Thr-Cys-Asp-Val-Ser-Ser-Tyr-Leu-Glu-Gly-Gln-Ala-Ala-Lys-Glu-Phe-Ile-Ala-Trp-Leu-Val-Arg-aAib-Arg-NH2 (H[Aib]EGTFTCDVSSYLEGQAAKEFIAWLVR[Aib]R-NH2; N-terminus assumed; SMILES CC[C@H](C)[C@H](NC(=O)[C@H](Cc1ccccc1)NC(=O)[C@H](CCC(=O)O)NC(=O)[C@H](CCCCN)NC(=O)[C@H](C)NC(=O)[C@H](C)NC(=O)[C@H](CCC(N)=O)NC(=O)CNC(=O)[C@H](CCC(=O)O)NC(=O)[C@H](CC(C)C)NC(=O)[C@H](Cc1ccc(O)cc1)NC(=O)[C@H](CO)NC(=O)[C@H](CO)NC(=O)[C@@H](NC(=O)[C@H](CC(=O)O)NC(=O)[C@H](CS)NC(=O)[C@@H](NC(=O)[C@H](Cc1ccccc1)NC(=O)[C@@H](NC(=O)CNC(=O)[C@H](CCC(=O)O)NC(=O)C(C)(C)NC(=O)[C@@H](N)Cc1c[nH]cn1)[C@@H](C)O)[C@@H](C)O)C(C)C)C(=O)N[C@@H](C)C(=O)N[C@@H](Cc1c[nH]c2ccccc12)C(=O)N[C@@H](CC(C)C)C(=O)N[C@H](C(=O)N[C@@H](CCCNC(=N)N)C(=O)NC(C)(C)C(=O)N[C@@H](CCCNC(=N)N)C(N)=O)C(C)C) [G8 series 64]” is higher in “Hypoglycemic” value: 1 days for the first, 2 days for the second.

Compared with “His-aAib-Glu-Gly-Thr-Phe-Thr-Cys-Asp-Val-Ser-Ser-Tyr-Leu-Glu-Gly-Gln-Ala-Ala-Lys-Glu-Phe-Ile-Ala-Trp-Leu-Val-Lys-aAib-Arg-NH2 (H[Aib]EGTFTCDVSSYLEGQAAKEFIAWLVK[Aib]R-NH2; N-terminus assumed; SMILES CC[C@H](C)[C@H](NC(=O)[C@H](Cc1ccccc1)NC(=O)[C@H](CCC(=O)O)NC(=O)[C@H](CCCCN)NC(=O)[C@H](C)NC(=O)[C@H](C)NC(=O)[C@H](CCC(N)=O)NC(=O)CNC(=O)[C@H](CCC(=O)O)NC(=O)[C@H](CC(C)C)NC(=O)[C@H](Cc1ccc(O)cc1)NC(=O)[C@H](CO)NC(=O)[C@H](CO)NC(=O)[C@@H](NC(=O)[C@H](CC(=O)O)NC(=O)[C@H](CS)NC(=O)[C@@H](NC(=O)[C@H](Cc1ccccc1)NC(=O)[C@@H](NC(=O)CNC(=O)[C@H](CCC(=O)O)NC(=O)C(C)(C)NC(=O)[C@@H](N)Cc1c[nH]cn1)[C@@H](C)O)[C@@H](C)O)C(C)C)C(=O)N[C@@H](C)C(=O)N[C@@H](Cc1c[nH]c2ccccc12)C(=O)N[C@@H](CC(C)C)C(=O)N[C@H](C(=O)N[C@@H](CCCCN)C(=O)NC(C)(C)C(=O)N[C@@H](CCCNC(=N)N)C(N)=O)C(C)C) [G8 series 65]”, “His-aAib-Glu-Gly-Thr-Phe-Thr-Cys-Asp-Val-Ser-Ser-Tyr-Leu-Glu-Gly-Gln-Ala-Ala-Lys[N-ϵ-(N-α-Palmitoyl-γ-glutamyl)]-Glu-Phe-Ile-Ala-Trp-Leu-Val-Arg-Gly-Arg-Gly-NH2 (HXEGTFTCDVSSYLEGQAAXEFIAWLVRGRG; Aib; palmitoyl-gamma-Glu on Lys; C-terminal amide; Sequence is synthesized; (2)..(2) Xaa is aAib; (20)..(20) Xaa is 26Lys[N-e-(N-a-palmitoyl-L-g-glutamyl)]; (31)..(31) N-terminal) [G8 series 61]” is higher in “Hypoglycemic” value: 2 days for the first, 4 days for the second.

Going from “His-aAib-Glu-Gly-Thr-Phe-Thr-Cys-Asp-Val-Ser-Ser-Tyr-Leu-Glu-Gly-Gln-Ala-Ala-Lys[N-ϵ-(N-α-Palmitoyl-γ-glutamyl)]-Glu-Phe-Ile-Ala-Trp-Leu-Val-Arg-Gly-Arg-Gly-OH (HXEGTFTCDVSSYLEGQAAXEFIAWLVRGRG; Aib; palmitoyl-gamma-Glu on Lys; C-terminal acid; Sequence is synthesized; (2)..(2) Xaa is aAib; (20)..(20) Xaa is 26Lys[N-e-(N-a-palmitoyl-L-g-glutamyl)]; (31)..(31) C-terminal) [G8 series 60]” to “His-aAib-Glu-Gly-Thr-Phe-Thr-Cys-Asp-Val-Ser-Ser-Tyr-Leu-Glu-Gly-Gln-Ala-Ala-Lys[N-ϵ-(N-α-oleoyl-L-γ-glutamyl)]-Glu-Phe-Ile-Ala-Trp-Leu-Val-Arg-Gly-Arg-Gly-NH2 (HXEGTFTCDVSSYLEGQAAXEFIAWLVRGRG; Aib; oleoyl-gamma-Glu on Lys; C-terminal amide; Sequence is synthesized; (2)..(2) Xaa is aAib; (20)..(20) Xaa is 26Lys[N-e-(N-a-oleoyl-L-g-glutamyl)]; (31)..(31) N-terminal) [G8 series 62]”, the “Hypoglycemic” value rises from 2 days to 5 days.

First: His-aAib-Glu-Gly-Thr-Phe-Thr-Cys-Asp-Val-Ser-Ser-Tyr-Leu-Glu-Gly-Gln-Ala-Ala-Lys[N-ϵ-(N-α-oleoyl-L-γ-glutamyl)]-Glu-Phe-Ile-Ala-Trp-Leu-Val-Arg-Gly-Arg-Gly-OH (HXEGTFTCDVSSYLEGQAAXEFIAWLVRGRG; Aib; oleoyl-gamma-Glu on Lys; C-terminal acid; Sequence is synthesized; (2)..(2) Xaa is aAib; (20)..(20) Xaa is 26Lys[N-e-(N-a-oleoyl-L-g-glutamyl)]; (31)..(31) C-terminal) [G8 series 63]
Second: His-aAib-Glu-Gly-Thr-Phe-Thr-Ser-Asp-Val-Cys-Ser-Tyr-Leu-Glu-Gly-Gln-Ala-Ala-Lys[N-ϵ-(N-α-Palmitoyl)]-Glu-Phe-Ile-Ala-Trp-Leu-Val-Arg-Gly-Arg-Gly-NH2 (HXEGTFTSDVCSYLEGQAAXEFIAWLVRGRG; αAib; palmitoyl on Lys; C-terminal amide; Sequence is synthesized; (2)..(2) Xaa is aAib; (20)..(20) Xaa is 26Lys[N-e-(N-a-palmitoyl-L-g-glutamyl)]; (31)..(31) N-terminal) [G4 series 28]
The “Hypoglycemic” value of the first is lower: 2 days for the first, 7 days for the second.

Compared with “His-aAib-Glu-Gly-Thr-Phe-Thr-Ser-Asp-Val-Cys-Ser-Tyr-Leu-Glu-Gly-Gln-Ala-Ala-Lys[N-ϵ-(N-α-Palmitoyl-γ-glutamyl)]-Glu-Phe-Ile-Ala-Trp-Leu-Val-Arg-Gly-Arg-Gly-NH2 (HXEGTFTSDVCSYLEGQAAXEFIAWLVRGRG; αAib; palmitoyl-γ-glutamyl on Lys; C-terminal amide; Sequence is synthesized; (2)..(2) Xaa is aAib; (20)..(20) Xaa is 26Lys[N-e-(N-a-Palmitoyl-g-glutamyl)]; (31)..(31) N-terminal) [G2 series 12]”, “His-aAib-Glu-Gly-Thr-Phe-Thr-Ser-Asp-Val-Cys-Ser-Tyr-Leu-Glu-Gly-Gln-Ala-Ala-Lys[N-ϵ-(N-α-Palmitoyl-γ-glutamyl)]-Glu-Phe-Ile-Ala-Trp-Leu-Val-Arg-Gly-Arg-Gly-OH (HXEGTFTSDVCSYLEGQAAXEFIAWLVRGRG; αAib; palmitoyl-γ-glutamyl on Lys; C-terminal acid; Sequence is synthesized; (2)..(2) Xaa is aAib; (20)..(20) Xaa is 26Lys[N-e-(N-a-Palmitoyl-g-glutamyl)]; (31)..(31) C-terminal) [G2 series 11]” is lower in “Hypoglycemic” value: 6 days for the first, 4 days for the second.

“His-aAib-Glu-Gly-Thr-Phe-Thr-Ser-Asp-Val-Cys-Ser-Tyr-Leu-Glu-Gly-Gln-Ala-Ala-Lys[N-ϵ-(N-α-oleoyl)]-Glu-Phe-Ile-Ala-Trp-Leu-Val-Arg-Gly-Arg-Gly-NH2 (HXEGTFTSDVCSYLEGQAAXEFIAWLVRGRG; αAib; oleoyl on Lys; C-terminal amide; Sequence is synthesized; (2)..(2) Xaa is aAib; (20)..(20) Xaa is 26Lys[N-e-(N-a-oleoyl-L-g-glutamyl)]; (31)..(31) N-terminal) [G4 series 29]” and “His-aAib-Glu-Gly-Thr-Phe-Thr-Ser-Asp-Val-Cys-Ser-Tyr-Leu-Glu-Gly-Gln-Ala-Ala-Lys[N-ϵ-(N-α-oleoyl-L-γ-glutamyl)]-Glu-Phe-Ile-Ala-Trp-Leu-Val-Arg-Gly-Arg-Gly-NH2 (HXEGTFTSDVCSYLEGQAAXEFIAWLVRGRG; αAib; oleoyl-γ-glutamyl on Lys; C-terminal amide; Sequence is synthesized; (2)..(2) Xaa is aAib; (20)..(20) Xaa is 26Lys[N-e-(N-a-oleoyl-L-g-glutamyl)]; (31)..(31) N-terminal) [G2 series 13]” are the same in “Hypoglycemic” value: 7 days for the first, 7 days for the second.

For “His-aAib-Glu-Gly-Thr-Phe-Thr-Ser-Asp-Val-Cys-Ser-Tyr-Leu-Glu-Gly-Gln-Ala-Ala-Lys[N-ϵ-(N-α-oleoyl-L-γ-glutamyl)]-Glu-Phe-Ile-Ala-Trp-Leu-Val-Arg-Gly-Arg-Gly-OH (HXEGTFTSDVCSYLEGQAAXEFIAWLVRGRG; αAib; oleoyl-γ-glutamyl on Lys; C-terminal acid; Sequence is synthesized; (2)..(2) Xaa is aAib; (20)..(20) Xaa is 26Lys[N-e-(N-a-oleoyl-L-g-glutamyl)]; (31)..(31) C-terminal) [G2 series 14]”, the “Hypoglycemic” value was 4 days.
